Read-outs that look alike come from different tables or passages of the source.
Experiments:
[1] = test system: wt-TMD8 diffuse large B-cell lymphoma cells; experiment: Cell proliferation assay wt-TMD8 (ATPlite, 120 hours); assay type: cell-based; conditions: read-out: IC50 wt-TMD8
In short: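 wt-TMD8 DLBCL cells, 1600 per well in RPMI-1640 with 10% FBS, rested ≥5 h then exposed to compound for 120 h at 37° C, 5% CO2. Viability read by ATPlite luminescence; percentage growth calculated relative to start-of-incubation signal and untreated 0.3% DMSO maximum growth.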

[2] = test system: wt-REC-1 mantle cell lymphoma cells; experiment: Cell proliferation assay wt-REC-1 (ATPlite, 72 hours); assay type: cell-based
In short: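 Luminescent viability read over 72 h, start-of-incubation signal recorded separately to separate growth from cell death. Percentage growth referenced to compound-free 0.3% DMSO wells; IC50 from 4-parameter logistic fit.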

[3] = target: full-length wt-BTK enzyme (Homo sapiens (Human), UniProt Q06187); experiment: Biochemical kinase assay wt-BTK (IMAP)
Chain of full-length wt-BTK enzyme (Q06187 whole entry): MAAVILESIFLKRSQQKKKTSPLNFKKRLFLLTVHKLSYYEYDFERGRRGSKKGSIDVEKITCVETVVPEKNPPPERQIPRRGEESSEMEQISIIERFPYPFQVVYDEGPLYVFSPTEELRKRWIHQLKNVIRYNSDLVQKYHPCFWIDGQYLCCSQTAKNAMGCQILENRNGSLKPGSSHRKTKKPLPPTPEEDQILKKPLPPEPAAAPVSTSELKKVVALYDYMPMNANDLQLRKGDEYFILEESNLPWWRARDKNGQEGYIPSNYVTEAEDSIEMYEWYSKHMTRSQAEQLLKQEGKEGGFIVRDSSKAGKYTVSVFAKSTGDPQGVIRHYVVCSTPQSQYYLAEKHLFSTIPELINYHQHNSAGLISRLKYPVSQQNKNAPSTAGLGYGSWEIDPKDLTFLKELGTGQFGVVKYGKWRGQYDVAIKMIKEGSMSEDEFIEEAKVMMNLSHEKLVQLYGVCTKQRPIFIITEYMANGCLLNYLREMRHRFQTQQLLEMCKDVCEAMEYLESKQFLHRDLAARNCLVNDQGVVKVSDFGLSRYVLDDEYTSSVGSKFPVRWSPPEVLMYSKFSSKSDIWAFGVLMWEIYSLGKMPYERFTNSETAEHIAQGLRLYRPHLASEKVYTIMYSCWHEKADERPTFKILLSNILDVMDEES
In short: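 IMAP fluorescence polarization assay: 1.2 nM enzyme pre-incubated 1 h with compound at room temperature, then 50 nM fluorescein-labeled MBP-derived peptide and 4 μM ATP added. Reaction ran 2 h at room temperature in the dark before quenching with IMAP binding solution.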

[4] = test system: REC-1 T474I cell lines; experiment: Cell proliferation assay REC-1 BTK T474I knock-in cells (ATPlite, 72 hours); assay type: cell-based; conditions: read-out: IC50 REC-1 T474I
In short: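 REC-1 cells carrying CRISPR knock-in mutant BTK, single-cell cloned and sequence-confirmed, were exposed to compound for 72 h and read by ATPlite luminescence. Percentage growth was calculated against the signal at the start of incubation and against untreated 0.3% DMSO wells as maximum growth.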

[5] = target: full-length BTK C481S enzyme (Homo sapiens (Human), UniProt Q06187, C481S); experiment: Biochemical kinase assay BTK C481S (IMAP)
Chain of full-length BTK C481S enzyme (Q06187 whole entry C481S): as the sequence (Q06187 whole entry) above, with C481S counted along it
In short: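 Full-length BTK C481S (1.2 nM) was pre-incubated with compound for 1 h at room temperature in the dark, then reacted with fluorescein-labelled MBP-derived peptide (50 nM) and ATP (7 μM) for 2 h. Reactions were quenched with IMAP binding solution, and IC50 values were derived from fluorescence polarization.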

[6] = B-cell, wt-TMD8 cells, 120 hours, ATPlite
[7] = 72 hours; read-out: IC50 wt-REC-1

| SMILES | IC50 [3] [nM] | IC50 [5] [nM] | IC50 [1, 6] [nM] | IC50 ([2]; 72 h; read-out: IC50 wt-REC-1) [nM] | IC50 [2, 7] [nM] | IC50 ([1]; wt-TMD8 cells, 120 hours, ATPlite) [nM] | IC50 ([1]; B-cell, 120 h) [nM] | IC50 ([2]; 72 h, read-out: IC50 wt-REC-1) [nM] | IC50 ([4]; Homo sapiens, Rec1, 72 h) [nM] | IC50 ([4]; Homo sapiens, Rec1, 72 hours) [nM] | IC50 ([4]; 72 hours) [nM] |
| --- | --- | --- | --- | --- | --- | --- | --- | --- | --- | --- | --- |
| CN1C/C=C/c2cnc(N)c3c(-c4ccc(C(=O)Nc5cc(C(F)(F)F)ccn5)cc4)nc(n23)[C@@H]2CCCN(C2)C(=O)CCCC1 [Example 129] | < 5 | < 5 |  |  |  |  | < 100 | 100 to 1000 | 500 to 10000 |  |  |
| [2H]C1([2H])/C=C/c2cnc(N)c3c(-c4ccc(C(=O)Nc5cc(C(F)(F)F)ccn5)cc4)nn(c23)[C@@H]2CCC[C@H](C2)NC(=O)CCCC1 [Example 137] | < 5 | < 5 | < 100 | < 100 |  |  |  |  |  | < 100 |  |
| Nc1ncc2c3c1c(-c1ccc(C(=O)Nc4cc(C(F)(F)F)ccn4)cc1)nn3[C@@H]1CCC[C@H](C1)NC(=O)CCCC(F)(F)/C=C/2 [Example 138] | 5 to 50 | 5 to 50 | < 100 | < 100 |  |  |  |  |  | 500 to 10000 |  |
| C[C@@H]1CCn2nc(-c3cnn(Cc4ccccc4)c3)c3c(N)ncc(c32)/C=C/CCCCCC(=O)N1 [Example 171] | 50 to 500 | 50 to 500 | 1000 to 10000 | 1000 to 10000 |  |  |  |  |  | 500 to 10000 |  |
| C[C@@H]1CC(=O)N[C@@H]2CCC[C@H](C2)c2nc(-c3ccc(C(=O)Nc4cc(C#N)ccn4)cc3)c3c(N)ncc(n23)/C=C/CCN1 [Example 206] | < 5 | < 5 | < 100 | < 100 |  |  |  |  |  | 500 to 10000 |  |
| C[C@@H]1CC(=O)N[C@@H]2CC[C@H](C2)c2nc(-c3ccc(C(=O)Nc4cc(C#N)ccn4)cc3)c3c(N)ncc(n23)/C=C/CCN1 [Example 208] | < 5 | < 5 | < 100 |  | 1000 to 10000 |  |  |  |  | 500 to 10000 |  |
| Nc1ncc2n3c(nc(-c4ccc(C(=O)Nc5cc(C(F)(F)F)ccn5)cc4)c13)[C@@H]1CC[C@H](C1)NC(=O)CNCC/C=C/2 [Example 209] | < 5 | < 5 | < 100 | < 100 |  |  |  |  |  | 500 to 10000 |  |
| COc1ccc(F)cc1C(=O)NCc1ccc(-c2nc3n4c(cnc(N)c24)/C=C/CCN[C@H](C)CC(=O)N[C@@H]2CCC[C@@H]3C2)cc1 [Example 212] | < 5 | < 5 | < 100 | < 100 |  |  |  |  |  | 500 to 10000 |  |
| COc1ccc(F)cc1C(=O)NCc1ccc(-c2nc3n4c(cnc(N)c24)/C=C/CCN[C@H](C)CC(=O)N[C@@H]2CC[C@@H]3C2)cc1 [Example 214] | < 5 | < 5 | < 100 | 100 to 1000 |  |  |  |  |  | 500 to 10000 |  |
| C[C@@H]1CC(=O)N[C@@H]2CC[C@H](C2)c2nc(-c3ccc(C(=O)Nc4cc(C#N)ccn4)cc3)c3c(N)ncc(n23)/C=C/CCN1 [Example 218] | < 5 | < 5 |  |  | < 100 | < 100 |  |  |  |  | 500 to 10000 |
| COc1ccc(F)cc1C(=O)NCc1ccc(-c2nc3n4c(cnc(N)c24)/C=C/CCNCC(=O)N[C@@H]2CC[C@@H]3C2)cc1 [Example 219] | < 5 | < 5 | < 100 | 100 to 1000 |  |  |  |  |  | 500 to 10000 |  |
| CC(=O)N1CC/C=C/c2cnc(N)c3c(-c4ccc(C(=O)Nc5cc(C(F)(F)F)ccn5)cc4)nc(n23)[C@@H]2CC[C@H](C2)NC(=O)C1 [Example 220] | < 5 | < 5 | < 100 | 1000 to 10000 |  |  |  |  |  | 500 to 10000 |  |

Continued, in another order:

| IC50 [3] [nM] | IC50 [5] [nM] | IC50 [1, 6] [nM] | IC50 ([2]; 72 h; read-out: IC50 wt-REC-1) [nM] | IC50 [2, 7] [nM] | IC50 ([1]; wt-TMD8 cells, 120 hours, ATPlite) [nM] | SMILES | IC50 ([1]; B-cell, 120 h) [nM] | IC50 ([2]; 72 h, read-out: IC50 wt-REC-1) [nM] | IC50 ([4]; Homo sapiens, Rec1, 72 h) [nM] | IC50 ([4]; Homo sapiens, Rec1, 72 hours) [nM] | IC50 ([4]; 72 hours) [nM] |
| --- | --- | --- | --- | --- | --- | --- | --- | --- | --- | --- | --- |
| < 5 | < 5 | < 100 | 1000 to 10000 |  |  | CN1CCCCc2cnc(N)c3c(-c4ccc(C(=O)Nc5cc(C(F)(F)F)ccn5)cc4)nn(c23)[C@@H]2CCC[C@H](C2)C(=O)NCC1 [Example 140] |  |  |  | 500 to 10000 |  |
| < 5 | < 5 | < 100 | 100 to 1000 |  |  | C[C@@H]1CCn2nc(-c3ccc(C(=O)Nc4cc(C(F)(F)F)ccn4)cc3)c3c(N)ncc(c32)/C=C/CN2CCN[C@H](C2)C(=O)N1 [Example 142] |  |  |  | 500 to 10000 |  |
| < 5 | < 5 | < 100 | 1000 to 10000 |  |  | CC1NC/C=C/c2cnc(N)c3c(-c4ccc(C(=O)Nc5cc(C(F)(F)F)ccn5)cc4)nn(c23)[C@@H]2CCC[C@H](C2)NC1=O (stereo partly drawn) [Example 145] |  |  |  | 500 to 10000 |  |
| < 5 | < 5 | < 100 | 100 to 1000 |  |  | C[C@@H]1CCn2nc(-c3ccc(C(=O)Nc4cc(C(F)(F)F)ccn4)cc3)c3c(N)ncc(c32)/C=C/CN2CC[C@H](C2)C(=O)N1 [Example 148] |  |  |  | 500 to 10000 |  |
| < 5 | < 5 | < 100 | 100 to 1000 |  |  | C[C@@H]1CNC(=O)[C@@H]2CCC[C@H](C2)n2nc(-c3ccc(C(=O)Nc4cc(C(F)(F)F)ccn4)cc3)c3c(N)ncc(c32)/C=C/CO1 [Example 149] |  |  |  | < 100 |  |
| < 5 | < 5 | < 100 | 1000 to 10000 |  |  | C[C@@H]1CNC(=O)[C@@H]2CCC[C@H](C2)n2nc(-c3ccc(C(=O)Nc4cc(C(F)(F)F)ccn4)cc3)c3c(N)ncc(c32)/C=C/CN1C [Example 154] |  |  |  | 500 to 10000 |  |
| < 5 | < 5 | < 100 | 100 to 1000 |  |  | C[C@@H]1CCn2nc(-c3ccc(C(=O)Nc4cc(C(F)(F)F)ccn4)cc3)c3c(N)ncc(c32)/C=C/CCO[C@@H](C)CC(=O)N1 [Example 158] |  |  |  | 500 to 10000 |  |
| < 5 | < 5 | < 100 | < 100 |  |  | C[C@@H]1CC(=O)N[C@@H]2CCC[C@H](C2)n2nc(-c3ccc(C(=O)Nc4cc(C(F)(F)F)ccn4)cc3)c3c(N)ncc(c32)/C=C/CN1 [Example 160] |  |  |  | 100 to 500 |  |
| < 5 | < 5 | < 100 | < 100 |  |  | C[C@H]1CC(=O)N[C@@H]2CCC[C@H](C2)n2nc(-c3ccc(C(=O)Nc4cc(C#N)ccn4)cc3)c3c(N)ncc(c32)/C=C/CCO1 [Example 161] |  |  |  | < 100 |  |
| < 5 | < 5 | < 100 | < 100 |  |  | CC(=O)N1CCC/C=C/c2cnc(N)c3c(-c4ccc(C(=O)Nc5cc(C(F)(F)F)ccn5)cc4)nn(c23)[C@@H]2CCC[C@H](C2)NC(=O)C1 [Example 167] |  |  |  | 100 to 500 |  |
| < 5 | < 5 | < 100 | < 100 |  |  | C[C@@H]1CCn2nc(-c3ccc(Oc4ccccc4)cc3)c3c(N)ncc(c32)/C=C/CCCCCC(=O)N1 [Example 173] |  |  |  | 500 to 10000 |  |
| < 5 | < 5 | < 100 | < 100 |  |  | Nc1ncc2n3c(nc(-c4ccc(C(=O)Nc5cc(C(F)(F)F)ccn5)cc4)c13)[C@@H]1CCC[C@H](C1)NC(=O)CCOCC/C=C/2 [Example 177] |  |  |  | 100 to 500 |  |
| < 5 | < 5 | < 100 | < 100 |  |  | Nc1ncc2n3c(nc(-c4ccc(C(=O)Nc5cc(C(F)(F)F)ccn5)cc4)c13)[C@@H]1CCC[C@H](C1)NC(=O)CCOC/C=C/2 [Example 178] |  |  |  | 100 to 500 |  |
| < 5 | < 5 | < 100 | 1000 to 10000 |  |  | CC(=O)N1CC/C=C/c2cnc(N)c3c(-c4ccc(C(=O)Nc5cc(C(F)(F)F)ccn5)cc4)nn(c23)[C@@H]2CCC[C@H](C2)NC(=O)C[C@H]1C [Example 190] |  |  |  | 500 to 10000 |  |
| < 5 | < 5 | < 100 | < 100 |  |  | C[C@@H]1CC(=O)N[C@@H]2CCC[C@H](C2)n2nc(-c3ccc(C(=O)Nc4cc(F)ccn4)cc3)c3c(N)ncc(c32)/C=C/CCN1 [Example 191] |  |  |  | < 100 |  |
| < 5 | < 5 | < 100 | < 100 |  |  | COc1cc(-c2nn3c4c(cnc(N)c24)/C=C/CCN[C@H](C)CC(=O)N[C@@H]2CCC[C@@H]3C2)ccc1C(=O)Nc1cc(C(F)(F)F)ccn1 [Example 194] |  |  |  | 500 to 10000 |  |
| < 5 | < 5 | < 100 | < 100 |  |  | Nc1ncc2c3c1c(-c1ccc(C(=O)Nc4cc(F)ccn4)cc1)nn3[C@@H]1CCC[C@H](C1)NC(=O)CCCCC/C=C/2 [Example 196] |  |  |  | < 100 |  |
| < 5 | < 5 | < 100 | < 100 |  |  | COc1cc(-c2nn3c4c(cnc(N)c24)/C=C/CCCCCC(=O)N[C@@H]2CCC[C@@H]3C2)ccc1C(=O)Nc1cc(C(F)(F)F)ccn1 [Example 197] |  |  |  | 100 to 500 |  |

From US20250074911A1, “MACROCYCLIC BTK INHIBITORS” (Crossfire Oncology Holding B.V., priority 2021, published 2025)
